According to ChEMBL document CHEMBL1201862, “PubChem BioAssay data set” (2004):
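Each compound was tested at five concentrations against cells in 96-well plates for 48 hours. At the GI50, growth is halved.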 The source made the active and inactive calls. No stated cut-off is given here; in the data, active = GI50 up to about 1.1 µM and inactive = higher.

Assays:
Test in all cases: NCI-60 cell line screen, 48 h
786-0 = test system: 786-0
CAKI-1 = test system: CAKI-1
HCT-116 = test system: HCT-116
HOP-62 = test system: HOP-62
Hs-578T = test system: Hs-578T
IGROV-1 = test system: IGROV-1
LOX IMVI = test system: LOX IMVI
M14 = test system: M14
MDA-MB-435 = test system: MDA-MB-435
Malme-3M = test system: Malme-3M
NCI-H23 = test system: NCI-H23
NCI-H522 = test system: NCI-H522
OVCAR-4 = test system: OVCAR-4
SF-295 = test system: SF-295
SN12C = test system: SN12C
SW-620 = test system: SW-620
T47D = test system: T47D
UACC-62 = test system: UACC-62
UO-31 = test system: UO-31
NCI-H226 = test system: NCI-H226

Measured: GI50

C=C1C(=O)O[C@H]2C[C@@H]1[C@@H](O)[C@H](O)[C@@H](C)CCCC(C)=CCC[C@@]2(C)O
inactive: 786-0 15.8 µM | CAKI-1 5.06 µM | HCT-116 16.1 µM | HOP-62 24.3 µM | Hs-578T 18 µM | IGROV-1 24.3 µM | LOX IMVI 18.5 µM | M14 13.6 µM | MDA-MB-435 17.7 µM | Malme-3M 13 µM | NCI-H23 18.1 µM | NCI-H522 4.24 µM | OVCAR-4 21.9 µM | SF-295 54.7 µM | SN12C 17 µM | SW-620 > 10 µM | T47D 20.2 µM | UACC-62 16.6 µM | UO-31 14.8 µM

CCCCCCCCOP(=O)(O)OP(=O)(O)OCC1OC(n2ccc(N)nc2=O)C(O)C1O (centres undefined)
inactive: 786-0 > 100 µM | CAKI-1 > 100 µM | HCT-116 > 100 µM | HOP-62 > 100 µM | Hs-578T > 100 µM | IGROV-1 > 100 µM | LOX IMVI > 100 µM | M14 > 100 µM | MDA-MB-435 > 100 µM | Malme-3M > 100 µM | NCI-H226 > 100 µM | NCI-H23 > 100 µM | OVCAR-4 > 100 µM | SF-295 > 100 µM | SN12C > 100 µM | SW-620 > 100 µM | T47D > 100 µM | UACC-62 > 100 µM | UO-31 > 100 µM

Fc1cccc(C2SCc3nc4cc5ccccc5cc4n32)c1 (centres undefined)
inactive: 786-0 69.3 µM | CAKI-1 68.9 µM | HCT-116 > 100 µM | HOP-62 41.5 µM | Hs-578T > 100 µM | IGROV-1 > 100 µM | LOX IMVI > 100 µM | M14 > 100 µM | MDA-MB-435 > 100 µM | Malme-3M > 100 µM | NCI-H226 > 100 µM | NCI-H23 > 100 µM | OVCAR-4 90.8 µM | SF-295 > 100 µM | SN12C 53.3 µM | SW-620 > 100 µM | T47D > 100 µM | UACC-62 > 100 µM | UO-31 > 100 µM

O=C1Nc2ccccc2NC1C1OC(c2ccccc2)=CC1=O (centres undefined)
inactive: 786-0 > 100 µM | CAKI-1 > 100 µM | HCT-116 > 100 µM | Hs-578T > 100 µM | IGROV-1 > 100 µM | LOX IMVI > 100 µM | M14 > 100 µM | MDA-MB-435 > 100 µM | Malme-3M > 100 µM | NCI-H226 > 100 µM | NCI-H23 > 100 µM | OVCAR-4 > 100 µM | SF-295 > 100 µM | SW-620 > 100 µM | T47D > 100 µM | UACC-62 > 100 µM | UO-31 > 100 µM

COc1ccccc1C#C/C=C\C#Cc1ccccc1C#N
inactive: 786-0 18.5 µM | CAKI-1 3.72 µM | HCT-116 7.35 µM | HOP-62 14.5 µM | Hs-578T 25.9 µM | IGROV-1 10.4 µM | M14 6.08 µM | MDA-MB-435 3.24 µM | Malme-3M 9.98 µM | NCI-H23 5.61 µM | NCI-H522 5.14 µM | OVCAR-4 96.8 µM | SF-295 6.58 µM | SN12C 26 µM | SW-620 6.32 µM | T47D 5.86 µM | UACC-62 23.7 µM | UO-31 10.9 µM

O=c1[nH]c2cccc([N+](=O)[O-])c2c(=O)n1-c1ccc(Cl)cc1
inactive: 786-0 19.8 µM | CAKI-1 2.64 µM | HCT-116 17.9 µM | HOP-62 18.6 µM | Hs-578T 17 µM | IGROV-1 16.7 µM | LOX IMVI 16.1 µM | M14 10.7 µM | MDA-MB-435 6.64 µM | Malme-3M 12.8 µM | NCI-H226 13.6 µM | NCI-H23 20.3 µM | OVCAR-4 5.07 µM | SF-295 1.89 µM | SN12C 14 µM | SW-620 10.4 µM | T47D 11 µM | UACC-62 5.3 µM

Cc1ccc(/C=c2\c(=O)[nH]c3nc4ccccc4c(=O)n23)cc1
inactive: 786-0 39.4 µM | CAKI-1 > 100 µM | HCT-116 28.5 µM | HOP-62 > 100 µM | Hs-578T 31 µM | LOX IMVI 29.1 µM | M14 37.5 µM | MDA-MB-435 24.9 µM | Malme-3M 45.5 µM | NCI-H23 34.4 µM | NCI-H522 29 µM | OVCAR-4 > 100 µM | SF-295 73.1 µM | SN12C 28.8 µM | SW-620 21.8 µM | T47D 41.9 µM | UACC-62 33.5 µM | UO-31 57.5 µM

CCOP(=O)(OCC)Oc1c(OC)c2[nH]c(C(=O)OC)cc2c2c(C(=O)O)c[nH]c12
inactive: 786-0 > 100 µM | CAKI-1 > 100 µM | HCT-116 > 100 µM | HOP-62 > 100 µM | Hs-578T > 100 µM | IGROV-1 > 100 µM | LOX IMVI > 100 µM | M14 > 100 µM | MDA-MB-435 > 100 µM | Malme-3M > 100 µM | NCI-H23 > 100 µM | NCI-H522 > 100 µM | OVCAR-4 > 100 µM | SF-295 > 100 µM | SN12C > 100 µM | SW-620 > 100 µM | T47D > 100 µM | UACC-62 > 100 µM | UO-31 > 100 µM

CC1(c2cccs2)CC(c2cccs2)=C(C#N)C(=C(C#N)C#N)N1 (centres undefined)
inactive: 786-0 17.3 µM | CAKI-1 19.7 µM | HCT-116 17.3 µM | HOP-62 19.9 µM | Hs-578T 30.9 µM | IGROV-1 17.7 µM | LOX IMVI 16.1 µM | M14 20.4 µM | MDA-MB-435 17.4 µM | Malme-3M 19.2 µM | NCI-H226 22.3 µM | NCI-H23 19.4 µM | OVCAR-4 16.4 µM | SF-295 16.9 µM | SN12C 18.7 µM | SW-620 11.4 µM | T47D 16.6 µM | UACC-62 15 µM | UO-31 18.9 µM

Cc1ccc2[nH]/c(=N/S(=O)(=O)c3cc(C)c(Cl)cc3S)[nH]c2c1
inactive: 786-0 45.9 µM | CAKI-1 48.1 µM | HCT-116 46.6 µM | HOP-62 34.8 µM | Hs-578T 88.3 µM | IGROV-1 34.4 µM | LOX IMVI 25.4 µM | M14 97.7 µM | MDA-MB-435 28.4 µM | Malme-3M > 100 µM | NCI-H23 66.2 µM | NCI-H522 > 100 µM | OVCAR-4 65 µM | SF-295 49.5 µM | SN12C > 100 µM | SW-620 43.8 µM | T47D 44.9 µM | UACC-62 > 100 µM | UO-31 57 µM

COC(=O)[C@]12CSC[C@H]1C[C@H](c1ccc(N(C)C)cc1)N2
inactive: 786-0 > 100 µM | CAKI-1 > 100 µM | HCT-116 > 100 µM | HOP-62 > 100 µM | Hs-578T > 100 µM | IGROV-1 > 100 µM | LOX IMVI > 100 µM | M14 > 100 µM | MDA-MB-435 > 100 µM | Malme-3M > 100 µM | NCI-H226 > 100 µM | NCI-H23 > 100 µM | OVCAR-4 > 100 µM | SF-295 > 100 µM | SN12C > 100 µM | SW-620 > 100 µM | T47D > 100 µM | UACC-62 > 100 µM | UO-31 > 100 µM
